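These data come from cells grown in 96-well plates and exposed to compound for 48 hours at five concentrations. GI50 marks 50% less growth.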 The source made the active and inactive calls. No stated cut-off is given here; in the data, active = GI50 up to about 1.1 µM and inactive = higher.
Key:
Test in all cases: inhibition of tumour cell growth, NCI panel, 48 h
A498 = test system: A498
ACHN = test system: ACHN
CCRF-CEM = test system: CCRF-CEM
COLO 205 = test system: COLO 205
HCT-116 = test system: HCT-116
HOP-92 = test system: HOP-92
KM12 = test system: KM12
MOLT-4 = test system: MOLT-4
OVCAR-3 = test system: OVCAR-3
OVCAR-8 = test system: OVCAR-8
RPMI-8226 = test system: RPMI-8226
SF-539 = test system: SF-539
SK-MEL-28 = test system: SK-MEL-28
SN12C = test system: SN12C
SNB-19 = test system: SNB-19
SW-620 = test system: SW-620
TK-10 = test system: TK-10
MDA-MB-231 = test system: MDA-MB-231
MDA-MB-435 = test system: MDA-MB-435

Measured: GI50

COC(=O)C12C3C4C5(C(=O)OC)C(C1C35C(=O)N(C(C)C)C(C)C)C42C(=O)N(C(C)C)C(C)C (stereo not drawn)
inactive: A498 > 50 µM | ACHN > 50 µM | CCRF-CEM > 50 µM | COLO 205 > 50 µM | HCT-116 14.7 µM | HOP-92 > 50 µM | KM12 > 50 µM | MOLT-4 > 50 µM | OVCAR-3 > 50 µM | OVCAR-8 > 50 µM | RPMI-8226 > 36.3 µM | SF-539 > 50 µM | SK-MEL-28 > 50 µM | SN12C > 50 µM | SNB-19 > 50 µM | SW-620 > 25.5 µM | TK-10 > 50 µM

O=C(Nc1ccc(Cl)cc1)c1cccc([N+](=O)[O-])c1O
inactive: A498 1.95 µM | ACHN 2.85 µM | CCRF-CEM 2.06 µM | COLO 205 2.91 µM | HCT-116 3.94 µM | HOP-92 1.61 µM | KM12 4.53 µM | MOLT-4 2.5 µM | OVCAR-3 1.81 µM | OVCAR-8 4.39 µM | RPMI-8226 1.6 µM | SF-539 4.18 µM | SK-MEL-28 4.99 µM | SN12C 4.09 µM | SNB-19 2.92 µM | SW-620 4.81 µM | TK-10 3.72 µM

O=C(CCc1n[nH]c(=S)o1)Nc1cc(Cl)c(Cl)cc1Cl
inactive: A498 36.9 µM | ACHN 40.5 µM | CCRF-CEM 31.6 µM | COLO 205 31.8 µM | HCT-116 15.9 µM | HOP-92 48.8 µM | KM12 87.9 µM | MOLT-4 45 µM | OVCAR-3 41.8 µM | OVCAR-8 51.2 µM | RPMI-8226 20.5 µM | SF-539 52.7 µM | SK-MEL-28 60.1 µM | SN12C > 100 µM | SNB-19 > 100 µM | SW-620 12.9 µM | TK-10 42.5 µM

Cc1cc(N=C2C=C(Br)C(=O)C(Br)=C2)cc(CN(CC(=O)O)CC(=O)O)c1O
inactive: A498 > 100 µM | ACHN > 100 µM | CCRF-CEM > 100 µM | COLO 205 > 100 µM | HCT-116 > 100 µM | MDA-MB-231 > 100 µM | MDA-MB-435 > 100 µM | MOLT-4 > 100 µM | OVCAR-3 > 100 µM | OVCAR-8 > 100 µM | RPMI-8226 > 100 µM | SF-539 > 100 µM | SK-MEL-28 > 100 µM | SN12C > 100 µM | SNB-19 > 100 µM | SW-620 > 100 µM

CCOc1cc(/C=C/C=C/C=C/c2ccc(N(C)C)cc2)[s+]c2ccccc12
inactive: A498 > 100 µM | ACHN 35.6 µM | CCRF-CEM 4.88 µM | COLO 205 41.1 µM | HCT-116 17.7 µM | HOP-92 25.1 µM | KM12 10.1 µM | MOLT-4 5.5 µM | OVCAR-3 14.4 µM | OVCAR-8 27.6 µM | RPMI-8226 6.78 µM | SF-539 18.2 µM | SK-MEL-28 19.1 µM | SN12C 21.2 µM | SNB-19 24.1 µM | SW-620 30.3 µM | TK-10 40.4 µM

COc1cc2c(cc1O)[C@H](C)C(c1ccccc1OC)O2 (stereo partly drawn)
inactive: A498 4.49 µM | ACHN 4.34 µM | CCRF-CEM 4.21 µM | COLO 205 6.97 µM | HCT-116 3.86 µM | HOP-92 8.2 µM | KM12 3.87 µM | MOLT-4 4.65 µM | OVCAR-3 6.53 µM | OVCAR-8 10.3 µM | RPMI-8226 2.64 µM | SF-539 5.11 µM | SK-MEL-28 6.41 µM | SNB-19 3.98 µM | SW-620 3.27 µM | TK-10 20.3 µM

CC(C)C1NC(=O)[C@H](C)OC(=O)[C@@H](C(C)C)NC(=O)[C@@H](C)OC(=O)C(C(C)C)NC(=O)[C@H](C)OC1=O (stereo partly drawn)
inactive: A498 > 100 µM | ACHN > 100 µM | CCRF-CEM > 100 µM | COLO 205 > 54.6 µM | HCT-116 > 86.5 µM | HOP-92 > 100 µM | KM12 > 88.7 µM | MOLT-4 > 100 µM | OVCAR-3 > 100 µM | OVCAR-8 > 100 µM | RPMI-8226 > 47.9 µM | SF-539 > 50.9 µM | SK-MEL-28 > 100 µM | SN12C > 100 µM | SNB-19 > 100 µM | SW-620 > 28.1 µM | TK-10 > 100 µM

CC(C)CC(NC(=O)OC(C)(C)C)C(=O)Nc1ccc(Nc2nc(F)nc(-c3c4ccccc4c4n3CCS4)n2)cc1 (stereo not drawn)
inactive: A498 26.2 µM | ACHN 24.3 µM | CCRF-CEM 3.65 µM | COLO 205 18.9 µM | HCT-116 23.5 µM | HOP-92 18.8 µM | KM12 26.7 µM | MOLT-4 16 µM | OVCAR-3 20.3 µM | OVCAR-8 22 µM | RPMI-8226 24.4 µM | SF-539 20.6 µM | SK-MEL-28 23.5 µM | SN12C 21.6 µM | SNB-19 18.2 µM | SW-620 16.1 µM | TK-10 28.8 µM

Cc1nnc2sc(Cc3cnc(N)s3)nn12
inactive: ACHN > 100 µM | CCRF-CEM > 100 µM | COLO 205 > 100 µM | HCT-116 > 100 µM | HOP-92 > 100 µM | KM12 > 100 µM | MDA-MB-231 > 100 µM | MOLT-4 > 100 µM | OVCAR-8 > 100 µM | RPMI-8226 > 100 µM | SF-539 > 100 µM | SK-MEL-28 > 100 µM | SN12C > 100 µM | SNB-19 > 100 µM | SW-620 > 100 µM | TK-10 > 100 µM

N#Cc1ccc(/C=N/NC(=O)CSCC(=O)N/N=C/c2ccc(C#N)cc2)cc1
inactive: A498 > 100 µM | ACHN > 100 µM | COLO 205 > 100 µM | HCT-116 > 100 µM | HOP-92 > 100 µM | KM12 > 100 µM | MDA-MB-231 29.1 µM | MDA-MB-435 > 100 µM | MOLT-4 > 100 µM | OVCAR-3 > 100 µM | OVCAR-8 53.1 µM | RPMI-8226 > 100 µM | SF-539 > 100 µM | SK-MEL-28 > 100 µM | SN12C > 100 µM | SNB-19 > 100 µM | SW-620 > 100 µM | TK-10 56 µM

C=C1C(C(=O)O)C1C(=O)O (stereo not drawn)
inactive: A498 > 100 µM | ACHN > 100 µM | CCRF-CEM > 100 µM | HCT-116 > 100 µM | HOP-92 > 100 µM | KM12 > 100 µM | MOLT-4 > 100 µM | OVCAR-8 > 100 µM | RPMI-8226 > 100 µM | SF-539 > 100 µM | SK-MEL-28 > 100 µM | SN12C > 100 µM | SNB-19 > 100 µM | SW-620 > 100 µM | TK-10 > 100 µM

CNC(=O)CN(CC(N)=O)C(=O)NC
inactive: A498 > 100 µM | ACHN > 100 µM | CCRF-CEM > 100 µM | COLO 205 > 100 µM | HOP-92 > 100 µM | KM12 > 100 µM | MOLT-4 > 100 µM | OVCAR-3 > 100 µM | OVCAR-8 > 100 µM | RPMI-8226 > 100 µM | SF-539 > 100 µM | SK-MEL-28 > 100 µM | SNB-19 > 100 µM | SW-620 > 100 µM | TK-10 > 100 µM

From ChEMBL document CHEMBL1201862, “PubChem BioAssay data set” (2004)
